Patent publication EP0937460A2, “Use of an antidiarrheal for the manufacture of a medicament for the treatment of inflammatory conditions” (Adolor Corporation, priority 1994, dated 1995)

How the values were obtained:
TNF production [1] = experiment: Inhibition of LPS-stimulated TNF production in the mouse macrophage line RAW 264.7 (ELISA); type: cell-based; conditions: RAW cells; for TNF LEVEL % Control (LPS alone); Ave. ± S.D. / activity at 10 µM: DRUG [10 µM], LPS at 10 ng/mL; for inhibition at 10 µM: LPS 10 ng/mL, read-out: inhibition of LPS-stimulated TNF secretion; for inhibition at 10 µM / effectiveness against LPS-stimulated TNF production (in words): drug 10 µM; for activity at 10 µM: RAW264.7, 6 h, read-out: TNF LEVEL % Control (LPS alone), Ave. ± S.D.
Experimental: Cells were passaged at confluence by scraping and routinely plated at a density of 0.25 x 10^6 and 0.5 x 10^6 cells per T-75 and T-150, respectively.
Typically, RAW cells were plated at 0.25 x 10^6 cells per well of a 24-well plate, in 0.5 mL media per well on the day prior to experimentation. […] 1%. Drugs were co-administered with the stimulant, LPS. After a 6-hr incubation period with LPS ± drug (n = 3-4), the media from the experimental wells was harvested, the cells were removed by microcentrifugation, and the media assayed for TNF by ELISA. Drugs were screened at 10 µM for their ability to alter TNF production by cells stimulated with 1 µg/mL or 10 ng/mL LPS. Dexamethasone, an anti-inflammatory corticosteroid, served as the reference for inhibition of the LPS response.

TNF production [2] = experiment: Inhibition of LPS-stimulated TNF production in the human monocytic cell line THP-1 (ELISA); type: cell-based; conditions: for TNF LEVEL % Control (LPS alone); Ave. ± S.D. / activity at 10 µM: THP-1 cells, DRUG [10 µM], LPS 1 µg/mL; for activity at 10 µM / inhibition at 10 µM: Homo sapiens; for activity at 10 µM: 6 h, read-out: TNF LEVEL % Control (LPS alone), Ave. ± S.D.; for inhibition at 10 µM / effectiveness against LPS-stimulated TNF production (in words): LPS-stimulated THP-1 cells; for inhibition at 10 µM: drug 10 µM, read-out: inhibition of TNF production; for effectiveness against LPS-stimulated TNF production (in words): 10 µM
Experimental: Cultures were maintained by the addition of fresh growth medium to a T-75 or T-150 flask of cells in suspension, or by pelleting the cells and re-suspending them in the appropriate volume of fresh medium. Maximum cell density was 1.0 x 10^6 cells per mL and cultures were seeded at a minimum density of 0.2 x 10^6 cells per ml.
THP-1 cells were plated into 24-well plates at a density of 1.0 x 10^6 cells per mL in 0.5 mL medium per well. […] For measurement of IL-1α and IL-1β production, THP-1 cells were incubated with 500 ng/mL or 50 ng/mL LPS and incubated for 16 hours. Levels of secreted cytokine were measured in cell supernatants as for TNF. Cell-associated species were measured in cell lysates which were prepared by repetitive freeze-thawing of cells. For in vitro screening, drugs at 10 µM concentration were co-administered with LPS. […] Drug effects on cell viability were assessed by the MTT assay. […] Water-soluble drugs were dissolved in aqueous solutions such as RPMI or deionized H20. The final concentration of DMSO in the incubation medium was at or below 0.01% and that of ethanol was at or below 0. 1%. The effect on cell viability was evaluated by the MTT assay.

COC(=O)C1=C(C)NC(C)=C(C(=O)OC(C)(C)CN(C)CCC(c2ccccc2)c2ccccc2)C1c1cccc([N+](=O)[O-])c1 (stereo not drawn) [Rec 15/2375]
TNF LEVEL % Control (LPS alone); Ave. ± S.D. (TNF production [1]): 33± 1 % Control | TNF LEVEL % Control (LPS alone); Ave. ± S.D. (TNF production [2]): 57±15 % Control

CC(=O)S[C@@H]1CC2=CC(=O)CC[C@]2(C)[C@H]2CC[C@@]3(C)[C@@H](CC[C@@]34CCC(=O)O4)[C@H]12 [Spironolactone, spironolactone]
activity at 10 µM (TNF production [2]): 54 ± 8% | inhibition at 10 µM (TNF production [2]): 46% | effectiveness against LPS-stimulated TNF production (in words) (TNF production [2]): as effective as amiloride

COc1ccc(CCN(C)CCC[C@@](C#N)(c2ccc(OC)c(OC)c2)C(C)C)cc1OC [(-)-Verapamil, (-)-verapamil]
TNF LEVEL % Control (LPS alone); Ave. ± S.D. (TNF production [2]): 53±3 % Control

CC/C(=C(\c1ccccc1)c1ccc(OCCN(C)C)cc1)c1ccccc1 [tamoxifen]
inhibition at 10 µM (TNF production [1]; Mus musculus, RAW264.7): ~65%

COc1ccc([C@@H]2Sc3ccccc3N(CCN(C)C)C(=O)[C@@H]2OC(C)=O)cc1 [Diltiazem, 1,5-Benzothiazepin-4(5H)-one, 3-(acetyloxy)-5-[2-(dimethylamino)ethyl]-2,3-dihydro-2-(4-methoxyphenyl)-, (2S-cis)-]
activity at 10 µM (TNF production [1]; Mus musculus): 47 ± 1% | activity at 10 µM (TNF production [2]): 86 ± 16% | effectiveness against LPS-stimulated TNF production (in words) (TNF production [2]): much less effective

COc1ccc(CCN(C)CCC[C@](C#N)(c2ccc(OC)c(OC)c2)C(C)C)cc1OC [(+)-Verapamil, (+)-verapamil]
TNF LEVEL % Control (LPS alone); Ave. ± S.D. (TNF production [2]): 51±2 % Control

CCCCNc1cc(C(=O)O)cc(S(N)(=O)=O)c1Oc1ccccc1 [bumetanide]
effectiveness against LPS-stimulated TNF production (in words) (TNF production [1]): minimal inhibition

Fc1ccc(C(c2ccc(F)cc2)N2CCN(C/C=C/c3ccccc3)CC2)cc1 [flunarizine, Peperizine, 1-[bis(4-fluorophenyl)methyl]-4-(3-phenyl-2-propenyl)-, (E)]
inhibition at 10 µM (TNF production [1]; Mus musculus, RAW264.7): 63%

Clc1ccc(C(c2ccc(Cl)cc2)n2cc[n+](CC(OCc3ccc(Cl)cc3Cl)c3ccc(Cl)cc3Cl)c2)cc1 (stereo not drawn) [calmidazolium]
inhibition at 10 µM (TNF production [2]): 40 to 50%

NCCCCCCNS(=O)(=O)c1cccc2c(Cl)cccc12 [W-7]
inhibition at 10 µM (TNF production [2]): 40 to 50%

CSc1ccc2c(c1)N(CCC1CCCCN1C)c1ccccc1S2 (stereo not drawn) [thioridazine]
inhibition at 10 µM (TNF production [1]; Mus musculus, RAW264.7): 60 to 70%

CCCCOc1cc(CC2CNC(=O)N2)ccc1OC (stereo not drawn) [RO 20-1724]
IC50 (TNF production [1]; Mus musculus, RAW264.7): 1 to 10 nM | inhibition at 10 µM (TNF production [1]; Mus musculus, RAW264.7): 47% | TNF LEVEL % Control (LPS alone); Ave. ± S.D. (TNF production [1]): 47±23 % Control | inhibition at 10 µM (TNF production [2]): 55% | TNF LEVEL % Control (LPS alone); Ave. ± S.D. (TNF production [2]): 45±34 % Control

CC(C)COCC(CN(Cc1ccccc1)c1ccccc1)N1CCCC1 (stereo not drawn) [Bepridil, 1-Pyrrolidieneethanamine, b-[(2-methylpropoxy)methyl]-N-phenyl-N-(phenylmethyl)]
activity at 10 µM (TNF production [1]; Mus musculus): 40 ± 4% | activity at 10 µM (TNF production [2]): 77 ± 9%

COc1ccc2c(c1)CCC(c1ccccc1)=C2c1ccc(OCCN2CCCC2)cc1 [nafoxidine]
inhibition at 10 µM (TNF production [1]; Mus musculus, RAW264.7): ~65%

O=C1c2c(O)cccc2Cc2cccc(O)c21 [dithranol]
inhibition at 10 µM (TNF production [1]; Mus musculus, RAW264.7): 67%

O=c1[nH]c2ccccc2n1C1CCN(CCCC(c2ccc(F)cc2)c2ccc(F)cc2)CC1 [pimozide]
inhibition at 10 µM (TNF production [1]; Mus musculus, RAW264.7): 60 to 70%

CN(C)c1nc(N)c(C(=O)N=C(N)N)nc1Cl [dimethylamiloride]
effectiveness against LPS-stimulated TNF production (in words) (TNF production [1]): same extent of inhibition as amiloride

NS(=O)(=O)c1cc(C(=O)O)c(NCc2ccco2)cc1Cl [Furosemide, benzoic acid, 5-(aminosulfonyl)-4-chloro-2-[(2-furanylmethyl)amino]-]
activity at 10 µM (TNF production [1]; Mus musculus): 49 ± 4% | inhibition at 10 µM (TNF production [1]; Mus musculus, RAW264.7): ~49% | effectiveness against LPS-stimulated TNF production (in words) (TNF production [1]): comparable to amiloride

COC(=O)C1=C(C)NC(C)=C(C(=O)OCCN(C)Cc2ccccc2)C1c1cccc([N+](=O)[O-])c1 (stereo not drawn) [Nicardipine, 3,5-Pyridinedicarboxylic acid, 1,4-dihydro-2,6-dimethyl-4-(3-nitrophenyl)-, methyl 2-[methyl(phenylmethyl)amino]ethyl ester]
activity at 10 µM (TNF production [1]; Mus musculus): 59 ± 35% | activity at 10 µM (TNF production [2]): 44 ± 1% | inhibition at 10 µM (TNF production [2]): 56%

CC(=O)CCCCn1c(=O)c2c(ncn2C)n(C)c1=O [Pentoxifylline, pentoxifylline]
activity at 10 µM (TNF production [1]; Mus musculus): 43 ± 2% | inhibition at 10 µM (TNF production [1]; Mus musculus, RAW264.7): 57% | activity at 10 µM (TNF production [2]): ≥ 100%
